Data published in BindingDB's records for doi:10.1021/ml200284s (2012).

Test: Inhibition of dynamin1-mediated endocytosis in human U2OS cells assessed as inhibition of Texas red-Tf uptake incubated for 30 mins prior to Texas red-Tf addition measured after 8 mins by receptor-mediated endocytosis assay

| Structure (SMILES) | IC50 |
| --- | --- |
| O=C1N=C(S)SC1=Cc1cc(Cl)cc(Cl)c1 | 18.1 µM |
| C=CCN1C(=O)/C(=C/c2ccc(OCCCN(C)C)cc2)SC1=S | 5.9 µM |
| O=C(O)CN1C(=O)/C(=C/c2csc3ccc(Cl)cc23)SC1=S | > 100 µM |
